“And” between values parts separate entries of the source, which are not always exact repeats. Equal values may be shown once.
Columns and labels:
Type in all cases: cell-based, rat
[1] = tested on: TH positive dopaminergic neurons of primary mesencephalic culture; experiment: Neuroprotective effect on TH positive dopaminergic neuron survival following exposure to 6-OHDA; settings: 6-OHDA 20 μM, 24 h, toxin alone
Method: This study investigated the neuroprotective effect of the plant extract of the invention on rat primary mesencephalic cultures following exposure to 6OHDA. […]
The midbrains were dissociated by trypsinisation for 20 min at 37° C. (Trypsin 0.05%, EDTA 0.02% (Batch 7310713, PanBiotech). The reaction was stopped by the addition of Dulbecco's modified Eagle's medium (DMEM, Batch 9710913, PanBiotech) containing DNAase I grade II (0.1 mg/mL, Batch H131108, PanBiotech) and 10% of foetal calf serum (FCS, Batch 41Q7218K, Gibco). Cells were then mechanically dissociated by 3 passages through a 10 mL pipette. Cells were then centrifuged at 180×g for 10 min at +4° C. on a layer of BSA (3.5%) in L15 medium. The supernatant was discarded and the cell pellets were re-suspended in a defined culture medium consisting of Neurobasal (Batch 1576979, Invitrogen, France) supplemented with 2% of B27 (Batch 1589889, Invitrogen), 2 mM of L-glutamine (Batch 8150713, PanBiotech), 2% of PS solution, 10 ng/mL of Brain-derived neurotrophic factor (Batch H140108, PanBiotech) and 1 ng/mL of Glial-Derived Neurotrophic Factor (Batch H130917, Pan Biotech) Viable cells were counted in a Neubauer cytometer using the trypan blue exclusion test. […]

[2] = tested on: TH positive dopaminergic neurons of primary mesencephalic culture; experiment: Neuroprotective effect on TH positive dopaminergic neuron survival following exposure to MPP+; settings: MPP+ 4 μM, 48 h
Method: This study investigated the neuroprotective effect of the plant extract of the invention on rat primary mesencephalic cultures following exposure to 1-methyl-4-phenyl pyridinium (MPP^+).
In such assay, […] (BDNF) was used as standard molecule.
(§1) The mesencephalic neurons were cultivated as in preceding example.
On day 6 of culture, the medium was removed and fresh medium was added, without or with MPP^+ (Batch 092M4729V, Sigma, France) at 4 μM diluted in control medium. 6 wells per condition were assessed.
(§2) The cells were fixed, washed, permeabilized and non-specific sites were blocked.
The immunolabeled cultures were automatically examined with ImageXpress (Molecular Devices, United Kingdom) equipped with a LED at ×10 magnification. For each condition (6 culture wells), 20 automatically fields per well (representing ˜80% of the total surface of the well) were analyzed. The total number of TH neurons was automatically analyzed using MetaXpress software (Molecular Devices).
Data were expressed in percentage of control conditions (no MPP^+=100%) in order to express the MPP^+ injury. All values were expressed as mean+/−SEM (s.e.mean) of the 6 wells with statistical analyses on the different conditions (ANOVA followed by Dunnett's test when allowed, using GraphPad Prism software). […]

[3] = tested on: TH positive dopaminergic neurons of primary mesencephalic culture; experiment: Neuroprotective effect on TH positive dopaminergic neuron survival following exposure to rotenone; settings: rotenone 10 nM, 24 hours, toxin alone
Method: as §1, §2
For each condition (6 culture wells), 20 automatically fields per well (representing ˜80% of the total surface of the well) were analyzed. The total number of TH neurons was automatically analyzed using MetaXpress software (Molecular Devices).

## NCCc1cc(O)c(O)cc1O [Composition 6-OHDA, 6-hydroxydopamine]
[1]
  cell death of TH positive neurons induced by the toxin: > 25%

## C[n+]1ccc(-c2ccccc2)cc1 [MPP^+, 1-methyl-4-phenyl pyridinium]
[2]; toxin alone
  cell death of TH positive neurons induced by the toxin: > 35% and > 30%

## C=C(C)[C@H]1Cc2c(ccc3c2O[C@@H]2COc4cc(OC)c(OC)cc4[C@@H]2C3=O)O1 [Rotenone, rotenone]
[3]
  cell death of TH positive neurons induced by the toxin: ~40%

B1: BDNF: Brain Derived Growth Factor (BDNF) used as standard molecule (protein, UniProt P23560 19-247, looked up)
Neurotrophic factor BDNF …: APMKEANIRGQGGLAYPGVRTHGTLESVNGPKAGSRGLTSLADTFEHVIEELLDEDQKVRPNEENNKDADLYTSRVMLSSQVPLEPPLLFLLEEYKNYLDAANMSMRVRRHSDPARRGELSVCDSISEWVTAADKKTAVDMSGGTVTVLEKVPVSKGQLKQYFYETKCNPMGYTKEGCRGIDKRHWNSQCRTTQSYVRALTMDSKKRIGWRFIRIDTSCVCTLTIKRGR
[2]; 50 ng/mL
  protection from MPP+ induced injuries: able to significantly protect cells

Reference: patent US10596217B2, “Compositions containing a Withania somnifera extract incubated with a filamentous fungus of the Beauvaria genus” (Ethnodyne, priority 2015, dated 2020)
